Experimental data: patent publication US20100311107A1, “Ultra-High Throughput Screening of Natural Products” (priority 2004, published 2010)
Read-outs that look alike come from different tables or passages of the source. Numbered stars: 1 amine (or outer) side, 2 acyl side, 3 side chain; on linkers, the order of the positions; unused ones are H or OH. Bridge positions count the residues as written; N and C are the ends. Square brackets hold non-standard residues; d marks the D form. Peptide text beside a SMILES is read from it. I, II: the chains in the order shown. Actinocin(9to1) = Cc1c2oc3c(C)ccc(C(=O)[*:1])c3nc-2c(C(=O)[*:2])c(N)c1=O; NMeV = CN[C@H](C(=O)O)C(C)C; Sar = CNCC(=O)O

Columns and labels:
Assay type in all cases: cell-based, Escherichia coli
[1] = tested on: E. coli screening strain DR1234; design: unit not given here
Description: (§1) The screening strain, DR1234, was established after all desired drug-resistant genes listed in Table 5 had been delivered into the parent E. coli strain, MG1655, by methods described above. Its level of drug resistance was analyzed by the standard minimum inhibitory concentration (MIC) assay in MHB liquid medium (Chantot, et al., 1986, “Antibacterial activity of roxithromycin: a laboratory evaluation,” J. Antibiot, 39(5):660-8) and the result was summarized in Table 7.

[2] = tested on: E. coli screening strain CM166; design: unit not given here
Text: (§2) The level of drug resistance of CM166 was estimated by MIC assay carried out in MHB liquid medium and the results were summarized in Table 9. CM166 is resistant to antibacterial agents whose resistant genes have been incorporated into the strain, but not to other antibacterial drugs whose resistant genes are not incorporated.

[3] = tested on: E. coli screening strain DR1212; design: unit not given here
Description: (§3) The level of drug-resistance of screening strain DR1212 was analyzed by standard MIC assay in MHB liquid medium and the result was summarized in Table 11. Similar to screening strains, DR1234 and CM166, DR1212 is also resistant to drugs whose resistant genes have been introduced.

[4] = tested on: E. coli screening strain CM242; design: unit not given here
Description: (§4) The level of drug resistance of these screening strains (both intermediates and finals) was evaluated by standard MIC assay in MHB liquid medium and the result of Strain CM242 is summarized in Table 12.

[5] = tested on: E. coli screening strain CM400; design: unit not given here
Description: (§5) The level of drug resistance of screening strains CM400 and CM435 was evaluated by standard MIC assay in MHB liquid medium and the results are summarized in Table 13. According to the MIC results, CM435 is hypersensitive to Bleomycin, Daunorucibin, Coumermycin A1 and Erythromycin. Screening strain CM435 and others, which are hypersensitive to certain types of antimicrobial agents, are advantageous in detecting bioactive compounds with low concentration in the screening system.

[6] = tested on: E. coli screening strain CM435; design: Minimal inhibitory concentrations (MIC90) CM435: unit not given here
[7] = tested on: lacZ reporter gene of the screening strains (CM191, CM242); experiment: S-Gal staining assay on solid medium; conditions: for lacZ reporter gene expression (S-Gal, blue-colored rings): screening strains on solid medium, drug-impregnated disks, PETG to suppress background
Text: The screening strains' responses to DNA damaging agents were further confirmed by S-Gal staining assay. When mitomycin C and streptonigrin (both were well-known DNA damaging drugs) and S-Gal, the indicator, were applied to the screening strains growing on solid medium, blue-colored rings were visible around colonies in drug-impregnated disks. […] Actinomycin D was an exception. CM242 was not sensitive to this drug, although it disrupts DNA structure. PETG (2-phenyethyl B-D-thiogalactoside, Sigma, St Louis Mo.), was used in this experiment to suppress unspecific background activity.

[8] = tested on: BW25113 strain containing drug-resistant genes inserted into the bioA locus; experiment: drug resistance characterization of strain with Tn7 cassette in bioA locus; conditions: for resistance conferred: streptothricin at 5 ug/ml, spectinomycin at 100 ug/ml; for resistance of strains having the promoter substitute: sat promoter replaced by Ptrc
Description: Therefore, a functional copy was introduced by homologous recombination as described hereafter. The drug-resistant gene of interest was synthesized in vitro using PCR with oligonucleotide primers that contained homologous sequences to the target genes and an additional ˜50 by homologous to a particular chromosomal site of the recipient strain. For instance, to insert the Tn7-associated resistance gene cassette dhfrI-sat-aadA into the bioA gene locus of the recipient strain, the primers listed in Table 6 were used. The capitalized portions of these primers hybridized to Tn7 template DNA upstream and downstream of the resistance gene cassette and allowed PCR amplification of the target fragment (Roche (Mannheim, Germany) Long Template PCR System). The ˜50 by additional sequence of these oligonucleotides (low case) afforded regions of homology with the chromosomal target site of the recipient, in this instance, the bioA gene locus (Table 6). The PCR product of the above reaction was introduced into a specialized strain, BW25113 (obtained from the E. coli Genetic Stock Center, strain # 7739) by standard electroporation following the manufacturer's instruction of BioRad (Hercules, Calif.) Gene Pulser, model #1652076, for standard electroporation of E. coli. Double-crossover homologous recombination, mediated by the bacteriophage lambda Red recombinase present in the strains pKD46 [#7630], pKD78 [#7989] or pKD119 [#7990], occurred between the “bioA” locus of the recipient strain and the PCR products via their homologous regions designed in the PCR primers as described above, resulting in the insertion of the drug resistance cassette into the bioA locus of the chromosome (FIG. 3, item 315). […] Once verified by drug resistance characterization and diagnostic PCR assay (see above), the drug resistance-encoding locus from the BW25113/pKD46 strain was introduced into the same locus of the recipient screening strain by standard P1 transduction as described above, also see FIG. 3, item 310.
To increase the gene expression level, the T7 promoter was used to replace the weak promoter of sat gene.

E. coli MG1655 = tested on: E. coli MG1655; design: unit not given here
Description: as §1, §2, §3, §4, §5

Compound	Minimal inhibitory concentrations (MIC90) MG1655 (E. coli MG1655; Table 7, MHB medium)	Minimal inhibitory concentrations (MIC90) MG1655 (E. coli MG1655; Table 9, MHB medium)	Minimal inhibitory concentrations (MIC90) MG1655 (E. coli MG1655; Table 11, MHB medium)	Minimal inhibitory concentrations (MIC90) MG1655 (E. coli MG1655; Table 13, MHB medium)	Minimal inhibitory concentrations (MIC90) MG1655 (E. coli MG1655; second Table 12, MHB medium)	Minimal inhibitory concentrations (MIC90) DR1234 ([1]; Table 7, MHB medium)	Minimal inhibitory concentrations (MIC90) CM166 ([2]; Table 9, MHB medium)	Minimal inhibitory concentrations (MIC90) DR1212 ([3]; Table 11, MHB medium)	Minimal inhibitory concentrations (MIC90) CM242 ([4]; second Table 12, MHB medium)	Minimal inhibitory concentrations (MIC90) CM400 ([5]; Table 13, MHB medium)	Minimal inhibitory concentrations (MIC90) CM435 ([6]; Table 13, MHB medium)	further results
COc1cc(Cc2cnc(N)nc2N)cc(OC)c1OC [Trimethoprim]	–	–	–	–	–	–	–	–	–	–	–	Minimal inhibitory concentrations (MIC90) DR1234 [1]: >400; Minimal inhibitory concentrations (MIC90) CM166 [2]: >400; Minimal inhibitory concentrations (MIC90) DR1212 [3]: >400; Minimal inhibitory concentrations (MIC90) CM242 [4]: >400; Minimal inhibitory concentrations (MIC90) CM400 [5]: >64; Minimal inhibitory concentrations (MIC90) CM435 [6]: >64; lacZ reporter gene expression (S-Gal, blue-colored rings) [7]: not expressed; resistance conferred, concentration ([8]; BW25113 with Tn7 cassette in bioA, native sat promoter): at least 10 ug/ml
CN[C@@H]1[C@H](O)[C@H](NC)[C@H]2O[C@@]3(O)C(=O)C[C@@H](C)O[C@H]3O[C@@H]2[C@H]1O [Spectinomycin]	6.3-12.5	6.3-12.5	6.3-12.5	16	6.3-12.5	>400	>400	>400	>400	>64	>64	resistance conferred ([8]; native sat promoter): not; resistance of strains having the promoter substitute [8]: resistant
CCN[C@@H]1C[C@H](N)[C@@H](O[C@H]2OC(CN)=CC[C@H]2N)[C@H](O)[C@H]1O[C@H]1OC[C@](C)(O)[C@H](NC)[C@H]1O [Netilmycin]	1.6	1.6	1.6	0.5	1.6	200	400	400	200	>64	64	–
Streptothricin	0.4-1.6	0.4-1.6	0.4-1.6	2	0.4-1.6	400	400	200	>400	>64	64	resistance conferred ([8]; native sat promoter): not; resistance of strains having the promoter substitute [8]: resistant
Cc1c2oc3c(C)ccc(C(=O)N[C@@H]4C(=O)N[C@H](C(C)C)C(=O)N5CCC[C@H]5C(=O)N(C)CC(=O)N(C)[C@@H](C(C)C)C(=O)O[C@@H]4C)c3nc-2c(C(=O)N[C@@H]2C(=O)N[C@H](C(C)C)C(=O)N3CCC[C@H]3C(=O)N(C)CC(=O)N(C)[C@@H](C(C)C)C(=O)O[C@@H]2C)c(N)c1=O [Actinomycin D] (I: T[dV]P[Sar][NMeV] / II: T[dV]P[Sar][NMeV]; ester I:1-I:C, II:1-II:C; linker I:N-II:N via Actinocin(9to1))	200	200	200	256	200	100	50	50.0	200	256	256	sensitivity of CM242 reporter to the drug ([7]; CM242, S-Gal staining): not sensitive
CCn1cc(C(=O)O)c(=O)c2ccc(C)nc21 [Nalidixic Acid]	6.3	6.3	6.3	8	6.3	400	800	50	>400	>64	>64	lacZ reporter gene expression (S-Gal, blue-colored rings) [7]: not expressed
[H]/N=C(/N)N[C@H]1[C@H](O)[C@@H](O)[C@H](O[C@@H]2O[C@@H](C)[C@](O)(C=O)[C@H]2O[C@@H]2O[C@@H](CO)[C@H](O)[C@@H](O)[C@@H]2NC)[C@@H](N/C(N)=N\[H])[C@@H]1O [Streptomycin]	3.2	3.2	3.2	4	3.2	>400	>400	>400	>400	>64	>64	–
Neomycin	0.8	0.8	0.8	2	0.8	100	25	25	50	16	8	–
CN(C)[C@@H]1C(O)=C(C(N)=O)C(=O)[C@@]2(O)C(O)=C3C(=O)c4c(O)cccc4[C@@](C)(O)[C@H]3C[C@@H]12 [Tetracycline]	0.4-3.2	0.4-3.2	0.4-3.2	2	0.4-3.2	–	100	–	>400	>64	64	Minimal inhibitory concentrations (MIC90) DR1234 [1]: 100; Minimal inhibitory concentrations (MIC90) DR1212 [3]: 100
CC1(C)S[C@@H]2[C@H](NC(=O)[C@H](N)c3ccccc3)C(=O)N2[C@H]1C(=O)O [Ampicillin]	1.6-3.2	1.6-3.2	1.6-3.2	8	1.6-3.2	>400	>400	>400	>400	>64	>64	–
